The test deals with T1, Human Polθ polymerase domain (aa1820-2590) (Homo sapiens, UniProt O75417).
T1 construct: Human Polθ polymerase domain (aa1820-2590) was expressed in E. coli; made in house; host or cells: E. coli
T1 sequence (O75417 1820-2590): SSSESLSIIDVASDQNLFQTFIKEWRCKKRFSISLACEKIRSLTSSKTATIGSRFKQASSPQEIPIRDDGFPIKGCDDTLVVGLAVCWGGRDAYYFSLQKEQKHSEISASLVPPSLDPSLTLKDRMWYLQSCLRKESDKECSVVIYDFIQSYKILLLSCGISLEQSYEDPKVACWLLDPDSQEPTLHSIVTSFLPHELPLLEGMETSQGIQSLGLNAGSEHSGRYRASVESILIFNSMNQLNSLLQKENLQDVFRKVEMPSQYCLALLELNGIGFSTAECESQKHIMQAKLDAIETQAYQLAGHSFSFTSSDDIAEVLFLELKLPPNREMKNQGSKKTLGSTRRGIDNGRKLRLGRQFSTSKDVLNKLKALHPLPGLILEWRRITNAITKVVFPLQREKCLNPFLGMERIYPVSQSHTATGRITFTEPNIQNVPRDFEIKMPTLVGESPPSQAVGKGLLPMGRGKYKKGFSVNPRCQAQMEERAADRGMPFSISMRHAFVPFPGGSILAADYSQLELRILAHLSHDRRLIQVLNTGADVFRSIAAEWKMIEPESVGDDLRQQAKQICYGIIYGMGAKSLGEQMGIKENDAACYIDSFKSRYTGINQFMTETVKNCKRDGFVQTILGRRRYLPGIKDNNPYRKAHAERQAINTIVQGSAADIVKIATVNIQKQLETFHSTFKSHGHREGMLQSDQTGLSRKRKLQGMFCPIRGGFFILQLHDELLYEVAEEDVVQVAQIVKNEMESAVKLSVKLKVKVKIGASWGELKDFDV
Kind of test: Polθ Polymerase Domain Kinact/KI Assay (PicoGreen). Format: biochemical. The settings on record: 0.8 nM Polθ, 100 nM DNA substrate, kobs vs [I] fit for 2-step covalent inhibitor. In a few lines:
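PicoGreen fluorescence read-out of primer extension; progress curves per inhibitor concentration fitted for kobs, then kobs vs [I] fitted to a two-step covalent model to give Kinact and KI. Conditions: 0.8 nM enzyme, 100 nM DNA substrate, […].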

The molecule `C=C(CN(C)C)C(=O)N[C@H]1CCn2cc(CN3C[C@H]4CC(=O)N(c5cc(C(F)(F)F)cc(C)n5)[C@@H]4C(=O)N(C)c4cccc(C)c43)nc2C1` (racemic) [Example 330a, N-((S/R)-2-(((3aR, 11aS)-6,10-dimethyl-1-(6-methyl-4-(trifluoromethyl)-pyridin-2-yl)-2,11-dioxo-1,2,3,3a,4,10, 11,11a-octahydro-5H-benzo[b]pyrrolo [2,3-f][1,4]diazocin-5-yl)methyl)-5,6,7,8-tetrahydroimidazo [1,2-a]pyridin-7-yl)-2-((dimethylamino)-methyl)acrylamide] had a Kinact/Kl of 2.74e+06 M⁻¹ s⁻¹. With `C=CC(=O)N1Cc2ccc(CN3C[C@H]4CC(=O)N(c5cc(C(F)(F)F)cc(C)n5)[C@@H]4C(=O)N(C)c4cccc(C)c43)nc2C1` [Example 240, (3aR,11aS)-5-((6-acryloyl-6,7-dihydro-5H-pyrrolo[3,4-b]pyridin-2-yl)methyl)-6,10-dimethyl-1-(6-methyl-4-(trifluoromethyl)pyridin-2-yl)-1,3a,4,5,10,11a-hexahydro-2H-benzo[b]pyrrolo[2,3-f][1,4]diazocine-2,11(3H)-dione] the figure was 1.55e+06 M⁻¹ s⁻¹; with `C=CC(=O)Nc1ccc(CN2C[C@H]3CC(=O)N(c4cc(C(F)(F)F)cc(C)n4)[C@@H]3C(=O)N(C)c3cccc(C)c32)cc1N(C)CCN(C)C` [Example 91, N-(4-(((3aR,11aS)-6,10-dimethyl-1-(6-methyl-4-(trifluoromethyl)pyridin-2-yl)-2,11-dioxo-1,2,3,3a,4,10,11,11a-octahydro-5H-benzo[b]pyrrolo[2,3-f][1,4]diazocin-5-yl)methyl)-2-((2-(dimethylamino)ethyl)(methyl)amino)phenyl)acrylamide], 4.38e+06 M⁻¹ s⁻¹. With `C=C(CN(C)C)C(=O)Nc1ccc(CN2C[C@H]3CC(=O)N(c4cc(C(F)(F)F)cc(C)n4)[C@@H]3C(=O)N(C)c3cccc(C)c32)cc1` [Example 209, N-(4-(((3aR,11aS)-6,10-dimethyl-1-(6-methyl-4-(trifluoromethyl)pyridin-2-yl)-2,11-dioxo-1,2,3,3a,4,10,11,11a-octahydro-5H-benzo[b]pyrrolo[2,3-f][1,4]diazocin-5-yl)methyl)phenyl)-2-((dimethylamino)methyl)acrylamide] the figure was 530000 M⁻¹ s⁻¹; with `C=CC(=O)N1Cc2ncc(CN3C[C@H]4CC(=O)N(c5cc(C(F)(F)F)cc(C)n5)[C@@H]4C(=O)N(C)c4cccc(C)c43)cc2[C@H]1CC#N` (racemic) [Example 320a, 2-((R/S)-6-acryloyl-3-(((3aR,11aS)-6,10-dimethyl-1-(6-meth-yl-4-(trifluorometh-yl)pyridin-2-yl)-2,11-dioxo-1,2,3,3a, 4,10,11,11a-octa-hydro-5H-benzo[b]pyrrolo[2,3-f][1,4]diazocin-5-yl)meth-yl)-6,7-dihydro-5H-pyrrolo[3,4-b]pyr-idin-5-yl)acetonitrile], 1.37e+06 M⁻¹ s⁻¹; with `C=CC(=O)N1CCn2cc(CN3C[C@H]4CC(=O)N(c5cc(C(F)(F)F)cc(C)n5)[C@@H]4C(=O)N(C)c4cccc(Cl)c43)nc2C1` [Example 136, (3aR,11aS)-5-((7-acryloyl-5,6,7,8-tetrahydroimidazo[1,2-a]pyrazin-2-yl)methyl)-6-chloro-10-methyl-1-(6-methyl-4-(trifluoromethyl)pyridin-2-yl)-1,3a,4,5,10,11a-hexahydro-2H-benzo[b]pyrrolo[2,1-f][1,4]diazocine-2,11(3H)-dione], 6.47e+06 M⁻¹ s⁻¹. With `C=CC(=O)N1CCOc2ccc(CN3C[C@H]4CC(=O)N(c5cc(C(F)(F)F)cc(C)n5)[C@@H]4C(=O)N(C)c4cccc(Cl)c43)cc21` [Example 250, (3aR,11aS)-5-((4-acryloyl-3,4-dihydro-2H-benzo[b][1,4]oxazin-6-yl)methyl)-6-chloro-10-methyl-1-(6-methyl-4-(trifluoromethyl)pyridin-2-yl)-1,3a,4,5,10,11a-hexahydro-2H-benzo[b]pyrrolo[2,3-f][1,4]diazocine-2,11(3H)-dione] the figure was 530000 M⁻¹ s⁻¹; with `C=CC(=O)N1Cc2nc(CN3C[C@H]4CC(=O)N(c5cc(C(F)(F)F)cc(C)n5)[C@@H]4C(=O)N(C)c4cccc(Cl)c43)cn2C[C@H]1C` (racemic) [Example 143b, (3aR,11aS)-5-(((S/R)-7-acryloyl-6-methyl-5,6,7,8-tetrahydroimidazo[1,2-a]pyrazin-2-yl)methyl)-6-chloro-10-methyl-1-(6-methyl-4-(trifluoromethyl)pyridin-2-yl)-1,3a,4,5,10,11a-hexahydro-2H-benzo[b]pyrrolo[2,3-f][1,4]diazocine-2,11(3H)-dione], 2.32e+06 M⁻¹ s⁻¹; with `Cc1cc(C(F)(F)F)cc(N2C(=O)C[C@@H]3CN(CCCCC4CN(C(=O)/C(Cl)=C/CN(C)C)C4)c4c(C)cccc4N(C)C(=O)[C@H]32)n1` [Example 254, (3aR,11aS)-5-(4-(1-((Z)-2-chloro-4-(dimethylamino)but-2-enoyl)azetidin-3-yl)butyl)-6,10-dimethyl-1-(6-methyl-4-(trifluoromethyl)pyridin-2-yl)-1,3a,4,5,10,11a-hexahydro-2H-benzo[b]pyrrolo[2,3-f][1,4]diazocine-2,11(3H)-dione], 2.13e+06 M⁻¹ s⁻¹. In turn, `C=CC(=O)N1Cc2ncc(CN3C[C@H]4CC(=O)N(c5cc(C(F)(F)F)cc(C)n5)[C@@H]4C(=O)N(C)c4cccc(Cl)c43)cc2[C@@H]1CC#N` (racemic) [Example 291b, 2-((S/R)-6-acryloyl-3-(((3aR,11aS)-6-chloro-10-methyl-1-(6-methyl-4-(trifluoromethyl)pyridin-2-yl)-2,11-dioxo-1,2,3,3a,4,10,11,11a-octahydro-5H-benzo[b]pyrrolo[2,3-f][1,4]diazocin-5-yl)methyl)-6,7-dihydro-5H-pyrrolo[3,4-b]pyridin-5-yl)acetonitrile] returned a Kinact/Kl of 1.48e+06 M⁻¹ s⁻¹.

As for `C=CC(=O)N1CC(N2CCN(C(=O)CN3C[C@H]4CC(=O)N(c5cc(C(F)(F)F)cc(C)n5)[C@@H]4C(=O)N(C)c4cccc(Cl)c43)CC2)C1` [Example 75, (3aR,11aS)-5-(2-(4-(1-acryloylazetidin-3-yl)piperazin-1-yl)-2-oxoethyl)-6-chloro-10-methyl-1-(6-methyl-4-(trifluoromethyl)pyridin-2-yl)-1,3a,4,5,10,11a-hexahydro-2H-benzo[b]pyrrolo[2,3-f][1,4]diazocine-2,11(3H)-dione], the Kinact/Kl turned out to be 1.32e+06 M⁻¹ s⁻¹. In the case of `C=CC(=O)N1CC(N2CCN(CCN3C[C@H]4CC(=O)N(c5cc(C(F)(F)F)cc(C)n5)[C@@H]4C(=O)N(C)c4cccc(Cl)c43)CC2=O)C1` [Example 112, (3aR,11aS)-5-(2-(4-(1-acryloylazetidin-3-yl)-3-oxopiperazin-1-yl)ethyl)-6-chloro-10-methyl-1-(6-methyl-4-(trifluoromethyl)pyridin-2-yl)-1,3a,4,5,10,11a-hexahydro-2H-benzo[b]pyrrolo[2,3-f][1,4]diazocine-2,11(3H)-dione], the Kinact/Kl was 920000 M⁻¹ s⁻¹. Consider `C=CC(=O)N1C[C@@H]2CN(CCN3C[C@H]4CC(=O)N(c5cc(C(F)(F)F)cc(C)n5)[C@@H]4C(=O)N(C)c4cccc(F)c43)CCN2C[C@@H]1C` (single isomer, unassigned) [Example 9], for which the Kinact/Kl is 600000 M⁻¹ s⁻¹.

`C=CC(=O)N1CC2(CN(CCN3C[C@H]4CC(=O)N(c5cc(C(F)(F)F)cc(C)n5)[C@@H]4C(=O)N(C)c4cccc(C)c43)C[C@@]2(C)C#N)C1` (racemic) [Example 119b, (S/R)-2-acryloyl-6-(2-((3aR,11aS)-6,10-dimethyl-1-(6-methyl-4-(trifluoromethyl)pyridin-2-yl)-2,11-dioxo-1,2,3,3a,4,10,11,11a-octahydro-5H-benzo[b]pyrrolo[2,3-f][1,4]diazocin-5-yl)ethyl)-8-methyl-2,6-diazaspiro[3.4]octane-8-carbonitrile] came in with a Kinact/Kl of 3.87e+06 M⁻¹ s⁻¹. In the case of `C=C(CN(C)C)C(=O)N1CC(OCCCN2C[C@H]3CC(=O)N(c4cc(C(F)(F)F)cc(C)n4)[C@@H]3C(=O)N(C)c3cccc(Cl)c32)C1` [Example 156, (3aR,11aS)-6-chloro-5-(3-((1-(2-((dimethylamino)methyl)acryloyl)azetidin-3-yl)oxy)propyl)-10-methyl-1-(6-methyl-4-(trifluoromethyl)pyridin-2-yl)-1,3a,4,5,10,11a-hexahydro-2H-benzo[b]pyrrolo[2,3- ][1,4]diazocine-2,11(3H)-dione] it was 3.95e+06 M⁻¹ s⁻¹.

The record behind these values is patent publication US20250230165A1, “HETEROCYCLIC COMPOUNDS FOR USE IN THE TREATMENT OF CANCER” (ARTIOS PHARMA LIMITED, priority 2021, published 2025).
